Data published in patent US6645917B2, “Composition for hybrid seed production, process for the preparation of such composition and use thereof” (Council of Scientific and Industrial Research, priority 2002, dated 2003).
Where two headings read alike, the source gives them in different places.

Tests used:
wheat [1] = settings: cited from earlier work
wheat plants = assay: Spray of chemicals in combinations and as individual molecules on wheat plants (Table 3); assay type: in vivo
Protocol: The effects of the composition with varied concentration of compound 1 and 2 were evaluated for two crops years. The aqueous solution of the compositions were sprayed on the wheat plants when the Spike length of 7-12 mm. i.e. growth of 20-22 of Zadoks scale, reached between 40-50 days after germination.
In a future of the present invention the calculation of male/female sterility is based on number of seeds and is done as per formula given below:
Male Sterility (%)=(Untreated Control−Bagged Spikes×100/Untreated Control
Female Sterility (%)=(Untreated Control−Bagged Spikes)×100/Untreated Control
The chemical formulation can be used at a rate of 1.8 kg/ha or below (following male: female ratio of 1:2) depending upon genotypes used, date of planting and growth stage. The female lines were sprayed with the chemical combination at the appropriate growth stage and concentration. The spike of 7-12 mm i.e. growth stage 20-22 of Zadoks scale (Zadoks J V, Chang T T and Konzak C F 1974. Weed Research 14: 415421) was ideal for generating effective male sterility in spring wheat. This stage is reached between 40-50 days after germination at optimum time of sowing in most of the genotypes. The date of spray varied depending upon the genotype used. A high volume spray pump may be used so as to cover the complete female plant.

wheat [2] = tested on: wheat; design: Effective dose: unit not given beside the values; settings: cited from earlier work; for Female sterility / Germination (%) / Max. seed shriveling (Scale 1-5) / Seed setting: at effective dose; for Female sterility / Germination (%) / Max. seed shriveling (Scale 1-5) / Seed setting / Effective dose: 7-8 mm spike length; for Effective dose: minimum effective dose for complete male sterility
[3] = wheat, side effects on plant and seed
[4] = at minimum effective dose for complete male sterility

In the case of `CC(Cl)(Cl)C(=O)O` [Dalapon], the “Sterility (optimum treatment) Female” value (wheat [1]; wheat, optimum treatment) is listed as “Severe”, the “Sterility (optimum treatment) Male” value (wheat [1]; wheat, optimum treatment) is listed as “Partial” and the Remarks (wheat [1]; [3]) is listed as “Severe plant damage”.

With `Cc1cc(=O)c(C(=O)[O-])nn1-c1ccc(F)c(Cl)c1.[K+]` [CH9832, potassium 1-[4-fluoro, 3-chlorophenyl]-1,4 dihydro6-methyl-4-oxopyridazine-3-carboxylate] the Female sterility (wheat plants) was “low female sterility”, the damage to florets (wheat plants) was “no damage to florets” and the male sterility (wheat plants) was “complete male sterility”. For the same molecule, the seed set (wheat plants) was “low seed set”, the “seed germination (CH9701 compared with CH9832)” value (wheat [2]; [4]) was “comparable” and the “seed setting (CH9832 compared with CH9701)” value (wheat [2]; [4]) was “numerically higher”. The Female sterility (wheat [2]; variety PBW343) was 40.2, the “Germination (%)” value (wheat [2]; variety PBW343) was 90% and the “Max. seed shriveling (Scale 1-5)” value (wheat [2]; variety PBW343) was 2. The Seed setting (wheat [2]; variety PBW343) was 49.0, the Effective dose (wheat [2]; variety PBW343) was 500 and the Female sterility (wheat [2]; variety WH542) was 10.7. For the same molecule, the “Germination (%)” value (wheat [2]; variety WH542) was 65%, the “Max. seed shriveling (Scale 1-5)” value (wheat [2]; variety WH542) was 2 and the Seed setting (wheat [2]; variety WH542) was 65.5. The Effective dose (wheat [2]; variety WH542) was 500.

In the case of `Cc1cc(=O)c(C(=O)[O-])nn1-c1ccc(Cl)cc1.[K+]` [CH9701, potassium 1-[4-chlorophenyl]-1,4 dihydro-6-methyl-4-oxopyridazine-3-carboxylate], the Female sterility (wheat plants) is reported as “high female sterility”, the damage to florets (wheat plants) is reported as “damage to florets” and the male sterility (wheat plants) is reported as “complete male sterility”. For the same molecule, the seed set (wheat plants) was “low seed set”, the “female sterility (CH9701 compared with CH9832)” value (wheat [2]; [4]) was “higher” and the “seed germination (CH9701 compared with CH9832)” value (wheat [2]; [4]) was “comparable”. The “seed shriveling (CH9701 compared with CH9832)” value (wheat [2]; [4]) was “higher”, the Female sterility (wheat [2]; variety PBW343) was 88.3 and the “Germination (%)” value (wheat [2]; variety PBW343) was 95%. For the same molecule, the “Max. seed shriveling (Scale 1-5)” value (wheat [2]; variety PBW343) was 3, the Seed setting (wheat [2]; variety PBW343) was 20.0 and the Effective dose (wheat [2]; variety PBW343) was 500. For the same molecule, the Female sterility (wheat [2]; variety WH542) was 90.7, the “Germination (%)” value (wheat [2]; variety WH542) was 85% and the “Max. seed shriveling (Scale 1-5)” value (wheat [2]; variety WH542) was 2. The Seed setting (wheat [2]; variety WH542) was 56.7 and the Effective dose (wheat [2]; variety WH542) was 250.

For `CC(Cl)(CCl)C(=O)[O-].[Na+]` (stereo not shown) [Mendok], the Remarks (wheat [1]; in vivo) is given as “Severe plant damage,”, the “Sterility (optimum treatment) Female” value (wheat [1]; in vivo) is given as “Significant” and the “Sterility (optimum treatment) Male” value (wheat [1]; wheat, optimum treatment) is given as “Poor”.

For `COc1nc(=O)n(-c2ccc(Cl)cc2)c(=O)[nH]1.OCCN(CCO)CCO` [DPX 3778], the “Sterility (optimum treatment) Female” value (wheat [1]; wheat, optimum treatment) is listed as “Sight”, the “Sterility (optimum treatment) Male” value (wheat [1]; wheat, optimum treatment) is listed as “High” and the Remarks (wheat [1]; [3]) is listed as “Shorter plant, leaf”.

In the case of `O=P(O)(O)CCCl` [Ethephon], the “Sterility (optimum treatment) Female” value (wheat [1]; wheat, optimum treatment) is listed as “Significant”, the “Sterility (optimum treatment) Male” value (wheat [1]; wheat, optimum treatment) is listed as “High” and the Remarks (wheat [1]; [3]) is listed as “Height and seed size”.

For `O=C(O)C1CNC1` [WL 84811], the “Sterility (optimum treatment) Female” value (wheat [1]; wheat, optimum treatment) is given as “Very”, the “Sterility (optimum treatment) Male” value (wheat [1]; wheat, optimum treatment) is given as “Nearly” and the Remarks (wheat [1]; [3]) is given as “Toxic residues in F1”.

In the case of `Cc1cc(C)n(-c2ccc(Cl)cc2)c(=O)c1C(=O)[O-].[Na+]` [RH-531], the “Sterility (optimum treatment) Female” value (wheat [1]; wheat, optimum treatment) is listed as “Significant”, the “Sterility (optimum treatment) Male” value (wheat [1]; wheat, optimum treatment) is listed as “High” and the Remarks (wheat [1]; [3]) is listed as “Inhibit veg. Growth”.

For `Cc1cc(=O)c(C(=O)[O-])nn1-c1ccc(Cl)cc1.[K+]` [Hybrex], the Remarks (wheat [1]; in vivo) is given as “Risk of damage”, the “Sterility (optimum treatment) Female” value (wheat [1]; in vivo) is given as “Slight” and the “Sterility (optimum treatment) Male” value (wheat [1]; wheat, optimum treatment) is given as “High”.

In the case of `C=C1C[C@]23C[C@@]1(O)CC[C@H]2[C@@]12C=C[C@H](O)[C@@](C)(C(=O)O1)[C@H]2[C@@H]3C(=O)O` [Gibberellic acid], the “Sterility (optimum treatment) Male” value (wheat [1]; wheat, optimum treatment) is given as “Poor”.
